Numbers after ± are expanded uncertainties.

The nature of data set [1]: refractive index (Na D-line) (dimensionless). To be noted: 298.15 K; 101.33 kPa; Liquid; Standard Abbe refractometry.
The conditions of data set [2]: 298.15 K; 101.33 kPa; Liquid; Buoyancy - hydrostatic balance.

As for `CC(C)CO` [2-methyl-1-propanol], in data set [1], the refractive index (in general, a measure of how strongly the sample bends light) was determined as 1.394 ± 0.0011. For the same compound, in data set [2], the mass density (in general, the mass of a sample divided by its volume) worked out at 801.652 ± 10 kg/m3.
Turning to `CC(=O)CC(C)C` [4-methylpentan-2-one], the refractive index in data set [1] is reported as 1.3964 ± 0.0011. Moreover, the mass density in data set [2] is recorded as 800.589 ± 10 kg/m3.
On to `CC#N` [acetonitrile], for which the refractive index in data set [1] stood at 1.3452 ± 0.001. Moreover, the mass density in data set [2] came out at 785.712 ± 10 kg/m3.
With `CCCCO` [butan-1-ol], the refractive index in data set [1] is given as 1.3975 ± 0.0011. Besides, the mass density in data set [2] is 805.881 ± 10 kg/m3.
As for `CN(C)C=O` [dimethylformamide], in data set [1], the refractive index is recorded as 1.4279 ± 0.0011. Moreover, the mass density in data set [2] was determined as 944.689 ± 10 kg/m3.
The corresponding values for `CC(C)c1ccccc1` [isopropylbenzene] are 1.4907 ± 0.0011 and 864.115 ± 10 kg/m3.
On to `CO` [methanol], for which, in data set [1], the refractive index is given as 1.3279 ± 0.0011. The mass density in data set [2] was determined as 791.814 ± 10 kg/m3.
Take `O` [water]: in data set [1], the refractive index was found to be 1.3324 ± 0.001.
